Type in all cases: cell-based, mouse
In test [1] the test system is Runx2. The test is described as follows: Runx2 DNA binding and protein expression in M2-10B4 cells. The settings on record: doses of 5-15 μM. As for the experimental part:
Method: Marrow stromal cells (M2-10B4 (M2)) were treated with doses of 5-15 μM 20S-hydroxycholestrol.
Method: Marrow stromal cells (M2-10B4 (M2)) were treated with doses of 5-15 μM20S-hydroxycholestrol. Groups of cells were pre-treated with 22S or 22R.
Method: Marrow stromal cells (M2-10B4 (M2)) were pretreated with Wnt signaling inhibitor, DKK-1 (1 μg/ml), then treated with 20S-hydroxycholestrol and 22(8)-hydroxycholesterol.

For test [2], the system named is ERK1 and ERK2. The test is described as follows: Western blot for native and phosphorylated ERK in M2 cells. The settings on record: 5 μM 20S oxysterol for 1, 4, or 8 hours. As for the experimental part: Western blot analysis—After treatments, cells were lysed in lysis buffer, protein concentrations determined using the Bio-Rad protein assay (Hercules, Calif. U.S.A.), and SDS-PAGE performed as previously described. Probing for native and phosphorylated ERKs was performed as previously reported.
(A) M2 cells at confluence were pretreated for four hours with RPMI containing 1% FBS, followed by treatment with control vehicle or 5 μM 20S oxysterol for 1, 4, or 8 hours. Next total cell extracts were prepared and analyzed for levels of native or phosphorylated ERK (pERK) using specific antibodies as previously described. Data from a representative of four experiments are shown, each treatment shown in duplicate samples. (B) M2 cells at confluence were pretreated for 2 hours with control vehicle (C) or 20 μM PD98059 (PD) in osteogenic medium as previously described. Next, a combination of 22R and 20S oxysterols (RS, 5 μM each) were added to appropriate wells as indicated. After 10 days of incubation, matrix mineralization was quantified by the ^45Ca incorporation assay as previously described. […] (C) M2 cells at confluence were pretreated for 2 hours with 20 µM PD98059 (PD) in RPMI containing 5% FBS. […] After 10 days, adipocytes were visualized by oil Red O staining and quantified by light microscopy as previously described. […]
(Immunoblotting shows a protein as a band on a membrane.)

The test system of test [3] is lipoprotein lipase (LPL) and adipocyte P2 gene (aP2). Put plainly: Northern blotting for adipogenic genes in troglitazone-treated M2 cells. The settings on record: 10 μM Tro with 10 μM 20S, 10 days. On the procedure:
RNA isolation and Northern blot analysis—Following treatment of cells under appropriate experimental conditions, total RNA was isolated using the RNA isolation kit from Stratagene (La Jolla, Calif., U.S.A.). Total RNA ([…]) was run on a 1% agarose/formaldehyde gel and transferred to Duralon-UV membranes (Strategene, CA, U.S.A.) and cross-linked with UV light. The membranes were hybridized overnight at 60 degree C. with ^32P-labeled mouse osteocalcin cDNA probe, mouse lipoprotein lipase (LPL), mouse adipocyte protein 2 (aP^2) PCR-generated probes, human 28S or 18S rRNA probes obtained from Geneka Biotechnology (Montreal, Quebec, Canada) and Maxim Biotech (San Francisco, Calif., U.S.A.), respectively. […] The extent of gene induction was determined by densitometry.
Test 2: (A) M2 cells at confluence were treated in RPMI containing 10% FBS with control vehicle or 10 μM troglitazone (Tro) in the absence or presence of 10 μM 20S or 22S-hydroxycholesterol. After 10 days, adipocytes were visualized by oil Red O staining and quantified by light microscopy, shown in (B). […] After 10 days, total RNA was isolated and analyzed for lipoprotein lipase (LPL), adipocyte P2 gene (aP2) or 18S rRNA expression by Northern blotting as described (Ref). […]

The structures appear in SMILES notation.

Turning to `CC(C)CCC[C@](C)(O)[C@H]1CC[C@H]2[C@@H]3CC=C4C[C@@H](O)CC[C@]4(C)[C@H]3CC[C@@]21C` [20S-hydroxycholesterol], the “Runx2 DNA binding and protein expression” value in test [1] is on record as “induction”. For the same compound, the “activation of ERK1 and ERK2” value in test [2] is on record as “sustained activation”. Besides, in test [3], the “expression of adipocyte P2 gene (aP2)” value is “inhibition of the expression” and the “expression of lipoprotein lipase (LPL)” value is “inhibition of the expression”.

The values are drawn from US20090220562A1, “Osteogenic and anti-adipogenic oxysterols” (priority 2005, published 2009).
